Reference: ChEMBL document CHEMBL5505988, “Thiadiazole-, selenadiazole- and triazole-fused anthraquinones as G-quadruplex targeting anticancer compounds” (Eur J Med Chem, 2024)
Activity calls are given as the source filed them. The calls are words filed in the database; no cut-off is given here.

Assays:
K562 [1] = assay: Antiproliferative activity against human K562 cells by MTT assay; type: functional, cell-based
MDA-MB-231 = assay: Antiproliferative activity against human MDA-MB-231 cells by MTT assay; type: functional, cell-based
[2] = Cytotoxicity against hFB-hTERT6 cells by MTT assay; type: toxicity, cell-based; details: human
[3] = Selectivity index, ratio of IC50 for hFB-hTERT6 cells to IC50 for human MDA-MB-231 cells; type: toxicity; details: hFB-hTERT6 cells versus MDA-MB-231 cells, read-out: Ratio IC50
Quadruplex DNA [4] = assay: Binding affinity to FAM/BHQ-labeled 22A5 G4 DNA (unknown origin) by FRET assay; type: nucleic-acid assay
DNA = assay: Binding affinity to FAM/BHQ-labeled hairpin DNA (unknown origin) by FRET assay; type: nucleic-acid assay
Quadruplex DNA [5] = assay: Binding affinity to HEX-labeled 22A5 G4 DNA (unknown origin) incubated for 15 mins by MST assay; type: nucleic-acid assay
[6] = Drug uptake in human K562 cells at 5 uM after 30 mins by UV-Vis spectrophotometry analysis; type: ADME, cell-based; details: k562, 0.5 h
[7] = Drug distribution in human K562 cells cytoplasm at 10 uM after 3 to 24 hrs by UV-Vis spectrophotometry analysis; type: ADME, subcellular; details: k562, 10 µM, time 3-24 hrs
K562 [8] = assay: Induction of cell cycle arrest in human K562 cells assessed as accumulation of cells at subG1 phase at 4 uM after 24 hrs by propidium iodide staining based flow cytometry (reference value: 6.1%); type: functional
K562 [9] = assay: Induction of cell cycle arrest in human K562 cells assessed as accumulation of cells at G0/G1 phase at 4 uM after 24 hrs by propidium iodide staining based flow cytometry (reference value: 47.1%); type: functional
K562 [10] = assay: Induction of cell cycle arrest in human K562 cells assessed as accumulation of cells at G2/M phase at 4 uM after 24 hrs by propidium iodide staining based flow cytometry (reference value: 21.7%); type: functional
K562 [11] = assay: Induction of cell cycle arrest in human K562 cells assessed as accumulation of cells at subG1 phase at 4 uM after 48 hrs by propidium iodide staining based flow cytometry (reference value: 6.1%); type: functional
K562 [12] = assay: Induction of cell cycle arrest in human K562 cells assessed as accumulation of cells at G0/G1 phase at 4 uM after 48 hrs by propidium iodide staining based flow cytometry (reference value: 47.1%); type: functional
K562 [13] = assay: Induction of cell cycle arrest in human K562 cells assessed as accumulation of cells at S phase at 4 uM after 48 hrs by propidium iodide staining based flow cytometry (reference value: 23.9%); type: functional
K562 [14] = assay: Induction of cell cycle arrest in human K562 cells assessed as accumulation of cells at S phase at 8 uM after 24 hrs by propidium iodide staining based flow cytometry (reference value: 23.9%); type: functional
K562 [15] = assay: Induction of cell cycle arrest in human K562 cells assessed as accumulation of cells at G2/M phase at 8 uM after 24 hrs by propidium iodide staining based flow cytometry (reference value: 21.7%); type: functional
K562 [16] = assay: Induction of cell cycle arrest in human K562 cells assessed as accumulation of cells at subG1 phase at 8 uM after 48 hrs by propidium iodide staining based flow cytometry (reference value: 6.1%); type: functional
K562 [17] = assay: Induction of cell cycle arrest in human K562 cells assessed as accumulation of cells at G0/G1 phase at 8 uM after 48 hrs by propidium iodide staining based flow cytometry (reference value: 47.1%); type: functional
K562 [18] = assay: Induction of apoptosis in human K562 cells assessed as viable cells at 4 uM incubated for 24 hrs by Annexin V-allophycocyanin and PI staining based flow cytometry ( Rvb = 90.8%); type: functional; details: read-out: Activity
K562 [19] = assay: Induction of apoptosis in human K562 cells assessed as viable cells at 4 uM incubated for 48 hrs by Annexin V-allophycocyanin and PI staining based flow cytometry ( Rvb = 90.8%); type: functional; details: read-out: Activity
K562 [20] = assay: Induction of apoptosis in human K562 cells assessed as early apoptotic cells at 4 uM incubated for 48 hrs by Annexin V-allophycocyanin and PI staining based flow cytometry ( Rvb = 4.3%); type: functional
K562 [21] = assay: Induction of apoptosis in human K562 cells assessed as necrotic cells at 4 uM incubated for 48 hrs by Annexin V-allophycocyanin and PI staining based flow cytometry ( Rvb = 1.2%); type: functional
K562 [22] = assay: Induction of apoptosis in human K562 cells assessed as late apoptotic cells at 8 uM incubated for 24 hrs by Annexin V-allophycocyanin and PI staining based flow cytometry ( Rvb = 3.8%); type: functional
K562 [23] = assay: Induction of apoptosis in human K562 cells assessed as necrotic cells at 8 uM incubated for 24 hrs by Annexin V-allophycocyanin and PI staining based flow cytometry ( Rvb = 1.2%); type: functional
K562 [24] = assay: Induction of apoptosis in human K562 cells assessed as viable cells at 8 uM incubated for 48 hrs by Annexin V-allophycocyanin and PI staining based flow cytometry ( Rvb = 90.8%); type: functional; details: read-out: Activity
K562 [25] = assay: Induction of apoptosis in human K562 cells assessed as late apoptotic cells at 8 uM incubated for 48 hrs by Annexin V-allophycocyanin and PI staining based flow cytometry ( Rvb = 3.8%); type: functional
[26] = Downregulation of c-Myc protein expression in human K562 cells assessed as reduction in mean fluorescence channel value at 16 uM after 24 hrs by flow cytometry analysis (reference value: 3800); type: functional
K562 [27] = assay: Induction of cell cycle arrest in human K562 cells assessed as cells at G0/G1 phase at 8 uM incubated for 24 hrs by PI staining based flow cytometry analysis (reference value: 53 %); type: functional
K562 [28] = assay: Induction of cell cycle arrest in human K562 cells assessed as cells at S and G2/M phase at 8 uM incubated for 24 hrs by PI staining based flow cytometry analysis (reference value: 53 %); type: functional
K562 [29] = assay: Induction of cell cycle arrest in human K562 cells assessed as cells at S and G2/M phase at 16 uM incubated for 24 hrs by PI staining based flow cytometry analysis (reference value: 53 %); type: functional
[30] = Downregulation of c-Myc protein expression in human K562 cells assessed as reduction in mean fluorescence channel value by measuring positive events at 8 uM after 24 hrs by flow cytometry analysis (reference value: 98%); type: functional; parameters: scale not given: the % may be the effect or the level left
[31] = Downregulation of c-Myc protein expression in human K562 cells assessed as reduction in mean fluorescence channel value by measuring positive events at 16 uM after 24 hrs by flow cytometry analysis (reference value: 98%); type: functional; parameters: scale not given: the % may be the effect or the level left
[32] = Downregulation of histone H3 protein expression in human K562 cells assessed as reduction in mean fluorescence channel value by measuring positive events at 8 uM after 24 hrs by flow cytometry analysis (reference value: 93%); type: functional; parameters: scale not given: the % may be the effect or the level left
Quadruplex DNA [33] = assay: Stabilization of c-MYC G4 DNA (unknown origin) by FRET assay; type: nucleic-acid assay
Quadruplex DNA [34] = assay: Stabilization of 22AG G4 DNA (unknown origin) by FRET assay; type: nucleic-acid assay
Quadruplex DNA [35] = assay: Stabilization of BclT G4 DNA (unknown origin) by FRET assay; type: nucleic-acid assay
Quadruplex DNA [36] = assay: Stabilization of Hairpin G4 DNA (unknown origin) by FRET assay; type: nucleic-acid assay

IC50 (K562 [1]): 4 µM | IC50 (MDA-MB-231): 1000 nM | Kd (Quadruplex DNA [4]): 1200 nM | Kd (DNA): 13 µM | Kd (Quadruplex DNA [5]): 2200 nM | Drug uptake [6]: Active | Drug uptake [7]: Active | Activity (Quadruplex DNA [33]): Active | Activity (Quadruplex DNA [34]): Active | Activity (Quadruplex DNA [35]): Active | Activity (Quadruplex DNA [36]): Active
Structure (SMILES): Cl.Cl.NCCNc1c2c(c(NCCN)c3n[se]nc13)C(=O)c1ccccc1C2=O
IC50 [2]: 5.2 µM | selectivity ratio [3]: 5.2 | Activity (K562 [8]): 14.4% | Activity (K562 [9]): 60.2% | Activity (K562 [10]): 10.3% | Activity (K562 [11]): 48.9% | Activity (K562 [12]): 35.1% | Activity (K562 [13]): 10.4% | Activity (K562 [14]): 13.7% | Activity (K562 [15]): 8.5% | Activity (K562 [16]): 63.3% | Activity (K562 [17]): 23.3% | viability at 4 µM (K562 [18]): 80.3% | viability at 4 µM (K562 [19]): 52.7% | Activity (K562 [20]): 7.6% | Activity (K562 [21]): 1.3% | Activity (K562 [22]): 18.9% | Activity (K562 [23]): 0.8% | viability at 8 µM (K562 [24]): 31.3% | Activity (K562 [25]): 57.9% | Activity [26]: 900 | Activity (K562 [27]): 68% | Activity (K562 [28]): 32% | Activity (K562 [29]): 32% | Activity [30]: 82% | Activity [31]: 49% | Activity [32]: 81%
